The test system of assay [1] is 1st passage tumor transplants of CD8F1 spontaneous breast tumors. Kind of assay: Effect of MMPR + 6-AN + PALA on tumor ATP pools in CD8F1 mice. Type of assay: in vivo. Also noted: tumor ATP levels 48 hours after treatment, % of normal (saline-treated control tumors) / 6 HR % Saline Control / 24 HR % Saline Control / 48 HR % Saline Control / 72HR % Saline Control / 6 HW % Saline Control: concentration or dose not given beside the values.

The test system of assay [2] is first passage CD8F1 advanced spontaneous breast tumors. In words: in vivo. From the text:
Table 1 evaluates Saline-treated controls (Group 1), 6-AN (Group 2) and DDP (Group 3) as single agents, and in combination (Group 4), against 1st generation subcutaneous solid tumor transplants of advanced CD8F, spontaneous breast tumors. In the same experiment (i.e., same tumor transplants), is a group adding 6-AN to PALA and MMPR (MAP, Group 5), as well as a group with MAP administered prior to DDP (Group 6).
Each experiment is from a different brei (i.e., each from a different group of 3-4 spontaneous tumors) and, therefore, each transplant group contained a different number of chemotherapeutically sensitive and/or resistant tumor cells.

Assay [3] has as its system human soft tissue sarcoma cell lines. Kind of assay: Sensitivity of human soft tissue sarcoma cell lines to L-alanosine by MTAP status. The format is cell-based. To be noted: cells lacking MTAP activity. From the text: An examination of MTAP expression in ten human soft tissue sarcoma cell lines found MTAP not detectable in three of the ten cell lines. These three cell lines were greater than 10-fold more sensitive to L-alanosine than the cell lines containing MTAP. […] In vivo studies of L-alanosine+MMPR, as well as the addition of 6-AN, are being evaluated (82).
An examination of MTAP expression in ten human soft tissue sarcoma cell lines found MTAP not detectable in four of the ten cell lines. These four cell lines were sensitive to L-alanosine.

The test system of assay [4] is mouse lymphoma cells. To be noted: in vitro; cited from earlier work.

Molecules are shown by their SMILES.

Take `CSc1ncnc2c1ncn2[C@@H]1O[C@H](CO)[C@@H](O)[C@H]1O` [MMPR, 6-methylmercaptopurine riboside]: in assay [1] (48 hours after administration), the “tumor ATP levels 48 hours after treatment, % of normal (saline-treated control tumors)” value came out at 34%. The “tumor ATP level, % of normal” value in assay [1] (murine breast tumors in vivo, time not stated in the sentence) stood at 34%. Besides, the “6 HW % Saline Control” value in assay [1] (seventh series copy of Table 1, 6 hr) was 47%. Moreover, the “24 HR % Saline Control” value in assay [1] (seventh series copy of Table 1, 24 hr) is reported as 47%; in assay [1] (tumor ATP 24 hr after i.p. injection, % of saline control), 47%. Besides, the “48 HR % Saline Control” value worked out at 34% in assay [1] (seventh series copy of Table 1, 48 hr) and 34% in assay [1] (tumor ATP 48 hr after i.p. injection, % of saline control). The “72HR % Saline Control” value in assay [1] (seventh series copy of Table 1, 72 hr) is given as 127%; in assay [1] (tumor ATP 72 hr after i.p. injection, % of saline control), 127%. Besides, the “6 HR % Saline Control” value in assay [1] (tumor ATP 6 hr after i.p. injection, % of saline control) is given as 47%. Also, the “effect on tumor growth / anticancer activity (in words)” value in assay [2] (advanced CD8F1 breast tumors in mice) is reported as “tumor growth was inhibited”. In addition, in assay [2] (three pooled published experiments, MMPR, 6-AN, PALA alone and combined, P.R. = 50% or more tumor shrinkage, three courses, 1-week interval), the “partial tumor regression (P.R.) rate” value is given as “no partial regressions”. Besides, the “effect of adding MMPR to L-alanosine (in words)” value in assay [3] was “further enhanced the sensitivity of the cells lacking MTAP activity to L-alanosine”. Further, in assay [4], the “cell growth, % of control” value was 25%. In assay [4], the “intracellular tumor cell ATP pool, % of normal (control)” value is listed as 49%.

Source of the values: patent US20030139331A1, “Treatment of cancer by reduction of intracellular energy and pyrimidines” (priority 2000, published 2003).
